Measurements as given in US8415346B2, “Inhibitors of Janus kinases” (Merck Sharp & Dohme Corp., priority 2008, dated 2013).

Biological target: T1, recombinant JAK2 (JAK2 JH1 domain) (Homo sapiens, UniProt O60674)
T1 construct: 50 nM JAK2 JH1 domain (Upstate); purchased Upstate
Assay: JAK2 Kinase Activity Inhibition Assay and Determination of IC50 (HTRF)
Format: biochemical
Settings: HTRF kinase assay, 15 μM MgATP, 50 nM JAK2 JH1 domain
Description: JAK2 Kinase Activity Inhibition Assay and Determination of IC50
The kinase activity was measured using a modified version of the homogeneous time-resolved tyrosine kinase assay described in Park et al. Anal. Biochem. 269, 94-104 (1999).
IC50 was obtained by fitting the observed relationship between compound/inhibitor concentration and HTRF signal with a 4-parameter logistic equation.
Compounds of the instant invention are potent inhibitors of recombinant purified JAK2 kinase activity with an IC50 of approximately 8 nM-1 μM.

T1 sequence (O60674 849-1124 limits assumed): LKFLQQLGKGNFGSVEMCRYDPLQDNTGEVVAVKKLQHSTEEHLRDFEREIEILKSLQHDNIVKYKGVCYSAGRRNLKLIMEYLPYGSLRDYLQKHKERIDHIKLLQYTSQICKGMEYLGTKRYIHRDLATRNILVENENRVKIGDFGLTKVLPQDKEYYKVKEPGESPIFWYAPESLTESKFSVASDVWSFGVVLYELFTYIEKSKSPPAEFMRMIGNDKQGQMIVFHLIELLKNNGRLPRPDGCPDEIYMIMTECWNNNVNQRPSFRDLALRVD

Compound | IC50 [nM]
NC(=O)c1cn(-c2ccccc2)nc1Nc1ccc(CN2CCS(=O)(=O)CC2)cc1 [Example 12, 3-({4-[(1,1-dioxidothiomorpholin-4-yl)methyl]phenyl}amino)-1-phenyl-1H-pyrazole-4-carboxamide] | 36
CN(C)C(=O)c1ccc(Nc2nn(-c3ccccc3)cc2C(N)=O)cc1 [Example 7, 3-({4-[(dimethylamino)carbonyl]phenyl}amino)-1-phenyl-1H-pyrazole-4-carboxamide] | 56
CS(=O)(=O)c1ccc(Nc2nn(-c3ccc(S(C)(=O)=O)cc3)cc2C(N)=O)cc1 [Example 16, 1-[4-(methylsulfonyl)phenyl]-3-{[4-(methylsulfonyl)phenyl]amino}-1H-pyrazole-4-carboxamide] | 48
NC(=O)c1cn(-c2ccccc2)nc1Nc1ccc(C(=O)N2CCOCC2)cc1 [Example 4, 3-{[4-(morpholin-4-ylcarbonyl)phenyl]amino}-1-phenyl-1H-pyrazole-4-carboxamide] | 94
CC(O)c1ccc(-n2cc(C(N)=O)c(Nc3ccc(S(C)(=O)=O)cc3)n2)cc1 (stereo not drawn) [Example 18, 1-[4-(1-hydroxyethyl)phenyl]-3-{[4-(methylsulfonyl)phenyl]amino}-1H-pyrazole-4-carboxamide] | 20
CC(C)(C)c1ccc(-n2cc(C(N)=O)c(Nc3ccc(S(C)(=O)=O)cc3)n2)cc1 [Example 17, 1-(4-tert-butylphenyl)-3-{[4-(methylsulfonyl)phenyl]amino}-1H-pyrazole-4-carboxamide] | 8.1
NC(=O)c1cn(-c2ccccc2)nc1Nc1ccc(C(=O)N2CCS(=O)(=O)CC2)cc1 [Example 10, 3-({4-[(1,1-dioxidothiomorpholin-4-yl)carbonyl]phenyl}amino)-1-phenyl-1H-pyrazole-4-carboxamide] | 13
NC(=O)c1cn(-c2ccccc2)nc1Nc1ccnc(CO)c1 [Example 3, 3-{[2-(hydroxymethyl)pyridin-4-yl]amino}-1-phenyl-1H-pyrazole-4-carboxamide] | 860
CNC(=O)c1ccc(Nc2nn(-c3ccccc3)cc2C(N)=O)cc1 [Example 2, 3-({4-[(methylamino)carbonyl]phenyl}amino)-1-phenyl-1H-pyrazole-4-carboxamide] | 160
CC(C)(O)c1ccc(Nc2nn(-c3ccccc3)cc2C(N)=O)cc1 [Example 14, 3-{[4-(1-hydroxy-1-methylethyl)phenyl]amino}-1-phenyl-1H-pyrazole-4-carboxamide] | 81
CS(=O)(=O)c1ccc(Nc2nn(-c3ccccc3)cc2C(N)=O)cc1 [Example 1, 3-{[4-(methylsulfonyl)phenyl]amino}-1-phenyl-1H-pyrazole-4-carboxamide] | 170
NC(=O)c1cn(-c2ccccc2)nc1Nc1ccc(CN2CCOCC2)cc1 [Example 11, 3-{[4-(morpholin-4-ylmethyl)phenyl]amino}-1-phenyl-1H-pyrazole-4-carboxamide] | 49
NC(=O)c1cn(-c2ccccc2)nc1Nc1ccc(S(=O)(=O)N2CCOCC2)cc1 [Example 5, 3-{[4-(morpholin-4-ylsulfonyl)phenyl]amino}-1-phenyl-1H-pyrazole-4-carboxamide] | 63
CN(C)S(=O)(=O)c1ccc(Nc2nn(-c3ccccc3)cc2C(N)=O)cc1 [Example 6, 3-({4-[(dimethylamino)sulfonyl]phenyl}amino)-1-phenyl-1H-pyrazole-4-carboxamide] | 42
NC(=O)c1cn(-c2ccccc2)nc1Nc1ccccc1 [Example 8, 3-anilino-1-phenyl-1H-pyrazole-4-carboxamide] | 480
CN(C)Cc1ccc(Nc2nn(-c3ccccc3)cc2C(N)=O)cc1 [Example 13, 3-({4-[(dimethylamino)methyl]phenyl}amino)-1-phenyl-1H-pyrazole-4-carboxamide] | 36
CS(=O)(=O)c1ccc(Nc2nn(-c3ccc(Cl)cc3)cc2C(N)=O)cc1 [Example 15, 1-(4-chlorophenyl)-3-{[4-(methylsulfonyl)phenyl]amino}-1H-pyrazole-4-carboxamide] | 290
CN1CCN(C(=O)c2ccc(Nc3nn(-c4ccccc4)cc3C(N)=O)cc2)CC1 [Example 9, 3-({4-[(4-methylpiperazin-1-yl)carbonyl]phenyl}amino)-1-phenyl-1H-pyrazole-4-carboxamide] | 38
